Assay results: PubChem BioAssay (NCI)
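The compound was tested at five concentrations on cells cultured in 96-well plates, with a 48-hour exposure period. GI50 is the concentration that inhibits growth by half. The concentration for full growth arrest is given as TGI.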

Key:
Test in all cases: NCI-60 cell line screen, 48 h
MDA-MB-231 breast = test system: MDA-MB-231 breast
MALME-3M melanoma = test system: MALME-3M melanoma
MOLT-4 leukemia = test system: MOLT-4 leukemia
OVCAR-3 ovarian = test system: OVCAR-3 ovarian
HOP-92 NSCLC = test system: HOP-92 NSCLC
NCI/ADR-RES ovarian = test system: NCI/ADR-RES ovarian
COLO 205 colon = test system: COLO 205 colon
HS 578T breast = test system: HS 578T breast
CAKI-1 renal = test system: CAKI-1 renal
UACC-62 melanoma = test system: UACC-62 melanoma
MDA-MB-435 = test system: MDA-MB-435
SK-MEL-28 melanoma = test system: SK-MEL-28 melanoma
OVCAR-4 ovarian = test system: OVCAR-4 ovarian
ACHN renal = test system: ACHN renal
NCI-H226 lung = test system: NCI-H226 lung
NCI-H460 lung = test system: NCI-H460 lung
BT-549 breast = test system: BT-549 breast
SW-620 colon = test system: SW-620 colon
CCRF-CEM leukemia = test system: CCRF-CEM leukemia
RXF 393 renal = test system: RXF 393 renal
SN12C renal = test system: SN12C renal
HCT-15 colon = test system: HCT-15 colon
HCC-2998 colon = test system: HCC-2998 colon
LOX IMVI melanoma = test system: LOX IMVI melanoma
SNB-19 CNS = test system: SNB-19 CNS
HOP-62 NSCLC = test system: HOP-62 NSCLC
OVCAR-8 ovarian = test system: OVCAR-8 ovarian
TK-10 renal = test system: TK-10 renal
SR leukemia = test system: SR leukemia
HCT-116 colon = test system: HCT-116 colon
SK-MEL-2 melanoma = test system: SK-MEL-2 melanoma
MCF7 breast = test system: MCF7 breast
U251 CNS = test system: U251 CNS
HL-60(TB) leukemia = test system: HL-60(TB) leukemia
NCI-H522 lung = test system: NCI-H522 lung
IGROV1 ovarian = test system: IGROV1 ovarian
UO-31 renal = test system: UO-31 renal
KM12 colon = test system: KM12 colon
T-47D breast = test system: T-47D breast
PC-3 prostate = test system: PC-3 prostate
A498 renal = test system: A498 renal
SNB-75 CNS = test system: SNB-75 CNS
SF-295 CNS = test system: SF-295 CNS
K-562 leukemia = test system: K-562 leukemia
SK-MEL-5 melanoma = test system: SK-MEL-5 melanoma
EKVX NSCLC = test system: EKVX NSCLC
NCI-H23 lung = test system: NCI-H23 lung
RPMI-8226 leukemia = test system: RPMI-8226 leukemia
SF-539 CNS = test system: SF-539 CNS
SK-OV-3 ovarian = test system: SK-OV-3 ovarian
786-0 renal = test system: 786-0 renal
M14 melanoma = test system: M14 melanoma
OVCAR-5 ovarian = test system: OVCAR-5 ovarian
A549 NSCLC = test system: A549 NSCLC
SF-268 CNS = test system: SF-268 CNS
UACC-257 melanoma = test system: UACC-257 melanoma
HT29 colon = test system: HT29 colon
DU-145 prostate = test system: DU-145 prostate

Question: Which results are given for `Cc1noc2c1-c1ccccc1C(c1ccc(Cl)cc1)=N[C@H]2CC(N)=O`?
Answer: GI50 (MDA-MB-231 breast): 7.56 µM; TGI (MDA-MB-231 breast): > 100 µM; GI50 (MALME-3M melanoma): 5.17 µM; TGI (MALME-3M melanoma): > 100 µM; GI50 (MOLT-4 leukemia): 7.71 µM; TGI (MOLT-4 leukemia): > 100 µM; GI50 (OVCAR-3 ovarian): 3.75 µM; TGI (OVCAR-3 ovarian): > 100 µM; GI50 (HOP-92 NSCLC): 0.54 µM; TGI (HOP-92 NSCLC): > 100 µM; GI50 (NCI/ADR-RES ovarian): 2.74 µM; TGI (NCI/ADR-RES ovarian): > 100 µM; GI50 (COLO 205 colon): 0.646 µM; TGI (COLO 205 colon): > 51.7 µM; GI50 (HS 578T breast): 1.59 µM; TGI (HS 578T breast): > 85.6 µM; GI50 (CAKI-1 renal): 0.368 µM; TGI (CAKI-1 renal): > 100 µM; GI50 (UACC-62 melanoma): 0.462 µM; TGI (UACC-62 melanoma): > 58.9 µM; GI50 (MDA-MB-435): 2.78 µM; TGI (MDA-MB-435): > 100 µM; GI50 (SK-MEL-28 melanoma): 7.38 µM; TGI (SK-MEL-28 melanoma): > 100 µM; GI50 (OVCAR-4 ovarian): 4.35 µM; TGI (OVCAR-4 ovarian): > 100 µM; GI50 (ACHN renal): 6.37 µM; TGI (ACHN renal): > 100 µM; GI50 (NCI-H226 lung): 11.6 µM; TGI (NCI-H226 lung): > 100 µM; GI50 (NCI-H460 lung): 16.7 µM; TGI (NCI-H460 lung): > 100 µM; GI50 (BT-549 breast): 10.9 µM; TGI (BT-549 breast): > 100 µM; GI50 (SW-620 colon): 26.1 µM; TGI (SW-620 colon): > 100 µM; GI50 (CCRF-CEM leukemia): 14.8 µM; TGI (CCRF-CEM leukemia): > 100 µM; GI50 (RXF 393 renal): 13 µM; TGI (RXF 393 renal): 72.7 µM; GI50 (SN12C renal): 38.2 µM; TGI (SN12C renal): > 100 µM; GI50 (HCT-15 colon): 2.49 µM; TGI (HCT-15 colon): > 100 µM; GI50 (HCC-2998 colon): 9.5 µM; TGI (HCC-2998 colon): > 100 µM; GI50 (LOX IMVI melanoma): 2.3 µM; TGI (LOX IMVI melanoma): > 100 µM; GI50 (SNB-19 CNS): 11 µM; TGI (SNB-19 CNS): > 100 µM; GI50 (HOP-62 NSCLC): 2.6 µM; TGI (HOP-62 NSCLC): > 100 µM; GI50 (OVCAR-8 ovarian): 15.2 µM; TGI (OVCAR-8 ovarian): > 100 µM; GI50 (TK-10 renal): 0.486 µM; TGI (TK-10 renal): > 100 µM; GI50 (SR leukemia): 0.976 µM; TGI (SR leukemia): > 70.6 µM; GI50 (HCT-116 colon): 5.34 µM; TGI (HCT-116 colon): > 100 µM; GI50 (SK-MEL-2 melanoma): 18.1 µM; TGI (SK-MEL-2 melanoma): > 100 µM; GI50 (MCF7 breast): 0.732 µM; TGI (MCF7 breast): > 100 µM; GI50 (U251 CNS): 20 µM; TGI (U251 CNS): > 100 µM; GI50 (HL-60(TB) leukemia): 0.398 µM; TGI (HL-60(TB) leukemia): > 33.8 µM; GI50 (NCI-H522 lung): 8.2 µM; TGI (NCI-H522 lung): > 100 µM; GI50 (IGROV1 ovarian): 6.03 µM; TGI (IGROV1 ovarian): > 100 µM; GI50 (UO-31 renal): 0.283 µM; TGI (UO-31 renal): > 100 µM; GI50 (KM12 colon): 12.1 µM; TGI (KM12 colon): > 100 µM; GI50 (T-47D breast): 3.48 µM; TGI (T-47D breast): > 100 µM; GI50 (PC-3 prostate): 12 µM; TGI (PC-3 prostate): > 100 µM; GI50 (A498 renal): 0.235 µM; TGI (A498 renal): 15.5 µM; GI50 (SNB-75 CNS): 0.134 µM; TGI (SNB-75 CNS): > 100 µM; GI50 (SF-295 CNS): 4.71 µM; TGI (SF-295 CNS): > 100 µM; GI50 (K-562 leukemia): 4.67 µM; TGI (K-562 leukemia): > 100 µM; GI50 (SK-MEL-5 melanoma): 6.96 µM; TGI (SK-MEL-5 melanoma): > 75.2 µM; GI50 (EKVX NSCLC): 14 µM; TGI (EKVX NSCLC): > 100 µM; GI50 (NCI-H23 lung): 5.31 µM; TGI (NCI-H23 lung): > 100 µM; GI50 (RPMI-8226 leukemia): 0.362 µM; TGI (RPMI-8226 leukemia): 10.7 µM; GI50 (SF-539 CNS): 5.17 µM; TGI (SF-539 CNS): > 100 µM; GI50 (SK-OV-3 ovarian): 1.54 µM; TGI (SK-OV-3 ovarian): > 65.7 µM; GI50 (786-0 renal): 10.9 µM; TGI (786-0 renal): > 100 µM; GI50 (M14 melanoma): 2.37 µM; TGI (M14 melanoma): > 100 µM; GI50 (OVCAR-5 ovarian): > 100 µM; TGI (OVCAR-5 ovarian): > 100 µM; GI50 (A549 NSCLC): 18.3 µM; TGI (A549 NSCLC): > 100 µM; GI50 (SF-268 CNS): 33.8 µM; TGI (SF-268 CNS): > 100 µM; GI50 (UACC-257 melanoma): 7.4 µM; TGI (UACC-257 melanoma): > 100 µM; GI50 (HT29 colon): 1.35 µM; TGI (HT29 colon): > 100 µM; GI50 (DU-145 prostate): 79.3 µM; TGI (DU-145 prostate): > 100 µM
